Laboratory results as given in patent US20220281848A1, “PYRAZOLE-SUBSTITUTED PYRROLIDINONES AS HERBICIDES” (FMC Corporation, priority 2019, published 2022).

System: plants
Test: Test D post-emergence, other plants of Tables D2 and D4
Assay type: in vivo
Settings: for STEME damage rating (100=total damage to plant; 0=no damage to plant) / VERPE damage rating (100=total damage to plant; 0=no damage to plant): "Cereals" Postemergent, evaluated after 15 d; for damage to plant (100=total damage to plant; 0=no damage to plant), ABUTH / damage to plant (100=total damage to plant; 0=no damage to plant), AMARE / damage to plant (100=total damage to plant; 0=no damage to plant), BIDPI / damage to plant (100=total damage to plant; 0=no damage to plant), BRAPL / damage to plant (100=total damage to plant; 0=no damage to plant), CYPES / damage to plant (100=total damage to plant; 0=no damage to plant), DIGSA / damage to plant (100=total damage to plant; 0=no damage to plant), ECHCG / damage to plant (100=total damage to plant; 0=no damage to plant), ELEIN / damage to plant (100=total damage to plant; 0=no damage to plant), EPHHL / damage to plant (100=total damage to plant; 0=no damage to plant), GLXMA / damage to plant (100=total damage to plant; 0=no damage to plant), IPOHE / damage to plant (100=total damage to plant; 0=no damage to plant), ORYSA / damage to plant (100=total damage to plant; 0=no damage to plant), PANMI / damage to plant (100=total damage to plant; 0=no damage to plant), SETFA / damage to plant (100=total damage to plant; 0=no damage to plant), SORVU: post-emergence
Procedure, shortened: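 Seeds treated with herbicide safener; sown in soil; glasshouse, 16 h light, 65% humidity. Sprayed day 1 (pre) or ~day 12 (post). Spray in 0.2% v/v adjuvant. Scored 0–100 damage: 20 DAA pre, 15 d post.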

CN1CC(c2cc(C(F)(F)F)n(C)n2)C(C(=O)Nc2ccc(F)cc2C(C)(F)F)C1=O (racemic) [Compound 26]
10: damage to plant (100=total damage to plant; 0=no damage to plant), DIGSA (rate 250, evaluated after 15 d) | damage to plant (100=total damage to plant; 0=no damage to plant), ECHCG (rate 500, evaluated after 15 d) | damage to plant (100=total damage to plant; 0=no damage to plant), ELEIN (rate 500, evaluated after 15 d) | damage to plant (100=total damage to plant; 0=no damage to plant), EPHHL (rate 250, evaluated after 15 d) | damage to plant (100=total damage to plant; 0=no damage to plant), EPHHL (rate 500, evaluated after 15 d)
60: damage to plant (100=total damage to plant; 0=no damage to plant), BRAPL (rate 250, evaluated after 15 d) | damage to plant (100=total damage to plant; 0=no damage to plant), DIGSA (rate 500, evaluated after 15 d) | damage to plant (100=total damage to plant; 0=no damage to plant), SETFA (rate 250, evaluated after 15 d) | damage to plant (100=total damage to plant; 0=no damage to plant), SETFA (rate 500, evaluated after 15 d)
80: VERPE damage rating (100=total damage to plant; 0=no damage to plant) (Rates 500) | damage to plant (100=total damage to plant; 0=no damage to plant), BRAPL (rate 500, evaluated after 15 d)
0: STEME damage rating (100=total damage to plant; 0=no damage to plant) (Rates 250) | STEME damage rating (100=total damage to plant; 0=no damage to plant) (Rates 500) | VERPE damage rating (100=total damage to plant; 0=no damage to plant) (Rates 130) | VERPE damage rating (100=total damage to plant; 0=no damage to plant) (Rates 250) | damage to plant (100=total damage to plant; 0=no damage to plant), ABUTH (rate 130, evaluated after 15 d) | damage to plant (100=total damage to plant; 0=no damage to plant), ABUTH (rate 250, evaluated after 15 d) | damage to plant (100=total damage to plant; 0=no damage to plant), ABUTH (rate 500, evaluated after 15 d) | damage to plant (100=total damage to plant; 0=no damage to plant), AMARE (rate 130, evaluated after 15 d) | damage to plant (100=total damage to plant; 0=no damage to plant), AMARE (rate 250, evaluated after 15 d) | damage to plant (100=total damage to plant; 0=no damage to plant), AMARE (rate 500, evaluated after 15 d) | damage to plant (100=total damage to plant; 0=no damage to plant), BIDPI (rate 130, evaluated after 15 d) | damage to plant (100=total damage to plant; 0=no damage to plant), BIDPI (rate 250, evaluated after 15 d) | damage to plant (100=total damage to plant; 0=no damage to plant), BIDPI (rate 500, evaluated after 15 d) | damage to plant (100=total damage to plant; 0=no damage to plant), CYPES (rate 130, evaluated after 15 d) | damage to plant (100=total damage to plant; 0=no damage to plant), CYPES (rate 250, evaluated after 15 d) | damage to plant (100=total damage to plant; 0=no damage to plant), CYPES (rate 500, evaluated after 15 d) | damage to plant (100=total damage to plant; 0=no damage to plant), DIGSA (rate 130, evaluated after 15 d) | damage to plant (100=total damage to plant; 0=no damage to plant), ECHCG (rate 130, evaluated after 15 d) | damage to plant (100=total damage to plant; 0=no damage to plant), ECHCG (rate 250, evaluated after 15 d) | damage to plant (100=total damage to plant; 0=no damage to plant), ELEIN (rate 130, evaluated after 15 d) | damage to plant (100=total damage to plant; 0=no damage to plant), ELEIN (rate 250, evaluated after 15 d) | damage to plant (100=total damage to plant; 0=no damage to plant), EPHHL (rate 130, evaluated after 15 d) | damage to plant (100=total damage to plant; 0=no damage to plant), GLXMA (rate 130, evaluated after 15 d) | damage to plant (100=total damage to plant; 0=no damage to plant), GLXMA (rate 250, evaluated after 15 d) | damage to plant (100=total damage to plant; 0=no damage to plant), GLXMA (rate 500, evaluated after 15 d) | damage to plant (100=total damage to plant; 0=no damage to plant), IPOHE (rate 130, evaluated after 15 d) | damage to plant (100=total damage to plant; 0=no damage to plant), IPOHE (rate 250, evaluated after 15 d) | damage to plant (100=total damage to plant; 0=no damage to plant), IPOHE (rate 500, evaluated after 15 d) | damage to plant (100=total damage to plant; 0=no damage to plant), ORYSA (rate 130, evaluated after 15 d) | damage to plant (100=total damage to plant; 0=no damage to plant), ORYSA (rate 250, evaluated after 15 d) | damage to plant (100=total damage to plant; 0=no damage to plant), ORYSA (rate 500, evaluated after 15 d) | damage to plant (100=total damage to plant; 0=no damage to plant), PANMI (rate 130, evaluated after 15 d) | damage to plant (100=total damage to plant; 0=no damage to plant), PANMI (rate 250, evaluated after 15 d) | damage to plant (100=total damage to plant; 0=no damage to plant), PANMI (rate 500, evaluated after 15 d) | damage to plant (100=total damage to plant; 0=no damage to plant), SETFA (rate 130, evaluated after 15 d) | damage to plant (100=total damage to plant; 0=no damage to plant), SORVU (rate 130, evaluated after 15 d) | damage to plant (100=total damage to plant; 0=no damage to plant), SORVU (rate 250, evaluated after 15 d) | damage to plant (100=total damage to plant; 0=no damage to plant), SORVU (rate 500, evaluated after 15 d)
50: damage to plant (100=total damage to plant; 0=no damage to plant), BRAPL (rate 130, evaluated after 15 d)
